# Earlier results as cited in patent US8636985B2, “Functional formulation in chewing gum” (priority 2010, dated 2014).
# Conditions: several experimental models
compound,measurement,value
CC1=C(CO)C(=O)O[C@@H]([C@@H](C)[C@H]2CC[C@H]3[C@@H]4C[C@H]5O[C@]56[C@@H](O)C=CC(=O)[C@]6(C)[C@H]4CC[C@]23C)C1 [Withaferin A],anti-inflammatory and antiarthritic properties,anti-inflammatory and antiarthritic properties
